Experiments:
[1] = molecular target: Ephrin type-B receptor 3 (Homo sapiens) (UniProt P54753); test: Inhibition of recombinant human GST-tagged EPHB3 catalytic domain (623 to 907 residues) expressed in baculovirus expression system at 0.1 uM using tyrosine-2 peptide as substrate incubated for 60 mins by Z'-LYTE assay relative to control
[2] = molecular target: Tyrosine-protein kinase Lyn (Homo sapiens) (UniProt P07948); test: Inhibition of recombinant full length human LYN at 0.1 uM using tyrosine-2 peptide as substrate incubated for 60 mins by Z'-LYTE assay relative to control
[3] = molecular target: Fibroblast growth factor receptor 1 (Homo sapiens) (UniProt P11362); test: Inhibition of recombinant human His-tagged FGFR1 catalytic domain (308 to 731 residues) expressed in baculovirus expression system at 0.1 uM using tyrosine-4 peptide as substrate incubated for 60 mins by Z'-LYTE assay relative to control
[4] = molecular target: Beta-adrenergic receptor kinase 1 (Homo sapiens) (UniProt P25098); test: Inhibition of recombinant full length human His-tagged GRK2 expressed in baculovirus expression system at 0.1 uM using serine/threonine-16 peptide as substrate incubated for 60 mins by Z'-LYTE assay relative to control
[5] = molecular target: CDK3/Cyclin E (Homo sapiens) (UniProt P24864+Q00526); test: Inhibition of tracer 236 binding to recombinant human GST-tagged CDK3/CyclinE1 expressed by baculovirus in Sf9 insect cells expression system at 0.1 uM measured after 60 mins by Lanthascreen assay relative to control
[6] = molecular target: Tyrosine-protein kinase Yes (Homo sapiens) (UniProt P07947); test: Inhibition of recombinant full length human GST-tagged YES expressed in baculovirus expression system at 0.1 uM using tyrosine-2 peptide as substrate incubated for 60 mins by Z'-LYTE assay relative to control
[7] = molecular target: CDK17/Cyclin-Y (Homo sapiens) (UniProt Q00537+Q8ND76); test: Inhibition of recombinant full length human GST-tagged CDK17/Cyclin Y (2 to end amino acids) expressed in insect expression system at 0.1 uM using serine/threonine-12 peptide as substrate incubated for 60 mins by Z'-LYTE assay relative to control
[8] = molecular target: Calcium/calmodulin-dependent protein kinase type IV (Homo sapiens) (UniProt Q16566); test: Inhibition of recombinant full length human full length GST-tagged CAMK4 expressed in Escherichia coli expression system at 0.1 uM using serine/threonine-13 peptide as substrate incubated for 60 mins by Z'-LYTE assay relative to control
[9] = molecular target: Misshapen-like kinase 1 (Homo sapiens) (UniProt Q8N4C8); test: Inhibition of recombinant human GST-tagged MINK1 catalytic domain (1 to 320 residues) expressed in baculovirus expression system at 0.1 uM using serine/threonine-7 peptide as substrate incubated for 60 mins by Z'-LYTE assay relative to control
[10] = molecular target: Rho-associated protein kinase 1 (Homo sapiens) (UniProt Q13464); test: Inhibition of recombinant human GST-tagged ROCK1 catalytic domain (1 to 535 amino acids) expressed in baculovirus expression system at 0.1 uM using serine/threonine-7 peptide as substrate incubated for 60 mins by Z'-LYTE assay relative to control
[11] = molecular target: Proto-oncogene tyrosine-protein kinase ROS (Homo sapiens) (UniProt P08922); test: Inhibition of recombinant human GST-tagged ROS1 catalytic domain (1883 to 2347 residues) expressed in baculovirus expression system at 0.1 uM using tyrosine-2 peptide as substrate incubated for 60 mins by Z'-LYTE assay relative to control
[12] = molecular target: Leucine-rich repeat serine/threonine-protein kinase 2 (Homo sapiens) (UniProt Q5S007); test: Inhibition of recombinant human GST-tagged LRRK2 catalytic domain (970 to 2527 amino acids) expressed in baculovirus expression system at 0.1 uM using ERM (LRRKtide) peptide as substrate incubated for 60 mins by Adapta assay relative to control
[13] = molecular target: Protein kinase C epsilon type (Homo sapiens) (UniProt Q02156); test: Inhibition of recombinant full length human GST-tagged PKCepsilon expressed in insect expression system at 0.1 uM using serine/threonine-7 peptide as substrate incubated for 60 mins by Z'-LYTE assay relative to control
[14] = molecular target: Proto-oncogene tyrosine-protein kinase receptor Ret (Homo sapiens) (UniProt P07949); test: Inhibition of recombinant human GST-tagged RET (658 to 1114 residues) expressed in baculovirus expression system at 0.1 uM using tyrosine-2 peptide as substrate incubated for 60 mins by Z'-LYTE assay relative to control
[15] = molecular target: Tyrosine-protein kinase TXK (Homo sapiens) (UniProt P42681); test: Inhibition of recombinant human GST-tagged TXK catalytic domain (260 to 527 residues) expressed in baculovirus expression system at 0.1 uM using tyrosine-6 peptide as substrate incubated for 60 mins by Z'-LYTE assay relative to control
[16] = molecular target: Serine/threonine-protein kinase Nek6 (Homo sapiens) (UniProt Q9HC98); test: Inhibition of recombinant full length human GST-tagged NEK6 expressed in insect expression system at 0.1 uM using serine/threonine-22 peptide as substrate incubated for 60 mins by Z'-LYTE assay relative to control
[17] = molecular target: Tyrosine-protein kinase JAK2 (Homo sapiens) (UniProt O60674); test: Inhibition of recombinant human GST-tagged JAK2 catalytic domain (809 to 1153+9 residues) expressed in baculovirus expression system at 0.1 uM using tyrosine-6 peptide as substrate incubated for 60 mins by Z'-LYTE assay relative to control
[18] = molecular target: Casein kinase I isoform alpha (Homo sapiens) (UniProt P48729); test: Inhibition of recombinant full length human GST-tagged CK1alpha1 expressed in baculovirus expression system at 0.1 uM using serine/threonine-11 peptide as substrate incubated for 60 mins by Z'-LYTE assay relative to control
[19] = molecular target: Proto-oncogene tyrosine-protein kinase Src (Homo sapiens) (UniProt P12931); test: Inhibition of recombinant full length human His-tagged SRC expressed in baculovirus expression system at 0.1 uM using tyrosine-2 peptide as substrate incubated for 60 mins by Z'-LYTE assay relative to control
[20] = molecular target: Mast/stem cell growth factor receptor Kit (Homo sapiens) (UniProt P10721); test: Inhibition of recombinant human His-tagged KIT (544 to 976 residues) expressed in baculovirus expression system at 0.1 uM using tyrosine-6 peptide as substrate incubated for 60 mins by Z'-LYTE assay relative to control
[21] = molecular target: STE20-like serine/threonine-protein kinase (Homo sapiens) (UniProt Q9H2G2); test: Inhibition of tracer 236 binding to recombinant full length human GST-tagged SLK expressed in baculovirus expression system at 0.1 uM measured after 60 mins by Lanthascreen assay relative to control
[22] = molecular target: Macrophage-stimulating protein receptor (Homo sapiens) (UniProt Q04912); test: Inhibition of recombinant human GST-tagged RON catalytic domain (983 to 1400 residues) expressed in baculovirus expression system at 0.1 uM using tyrosine-6 peptide as substrate incubated for 60 mins by Z'-LYTE assay relative to control

Chain of Proto-oncogene tyrosine-protein kinase ROS (Homo sapiens) (P08922 whole entry, the tested form may be a part): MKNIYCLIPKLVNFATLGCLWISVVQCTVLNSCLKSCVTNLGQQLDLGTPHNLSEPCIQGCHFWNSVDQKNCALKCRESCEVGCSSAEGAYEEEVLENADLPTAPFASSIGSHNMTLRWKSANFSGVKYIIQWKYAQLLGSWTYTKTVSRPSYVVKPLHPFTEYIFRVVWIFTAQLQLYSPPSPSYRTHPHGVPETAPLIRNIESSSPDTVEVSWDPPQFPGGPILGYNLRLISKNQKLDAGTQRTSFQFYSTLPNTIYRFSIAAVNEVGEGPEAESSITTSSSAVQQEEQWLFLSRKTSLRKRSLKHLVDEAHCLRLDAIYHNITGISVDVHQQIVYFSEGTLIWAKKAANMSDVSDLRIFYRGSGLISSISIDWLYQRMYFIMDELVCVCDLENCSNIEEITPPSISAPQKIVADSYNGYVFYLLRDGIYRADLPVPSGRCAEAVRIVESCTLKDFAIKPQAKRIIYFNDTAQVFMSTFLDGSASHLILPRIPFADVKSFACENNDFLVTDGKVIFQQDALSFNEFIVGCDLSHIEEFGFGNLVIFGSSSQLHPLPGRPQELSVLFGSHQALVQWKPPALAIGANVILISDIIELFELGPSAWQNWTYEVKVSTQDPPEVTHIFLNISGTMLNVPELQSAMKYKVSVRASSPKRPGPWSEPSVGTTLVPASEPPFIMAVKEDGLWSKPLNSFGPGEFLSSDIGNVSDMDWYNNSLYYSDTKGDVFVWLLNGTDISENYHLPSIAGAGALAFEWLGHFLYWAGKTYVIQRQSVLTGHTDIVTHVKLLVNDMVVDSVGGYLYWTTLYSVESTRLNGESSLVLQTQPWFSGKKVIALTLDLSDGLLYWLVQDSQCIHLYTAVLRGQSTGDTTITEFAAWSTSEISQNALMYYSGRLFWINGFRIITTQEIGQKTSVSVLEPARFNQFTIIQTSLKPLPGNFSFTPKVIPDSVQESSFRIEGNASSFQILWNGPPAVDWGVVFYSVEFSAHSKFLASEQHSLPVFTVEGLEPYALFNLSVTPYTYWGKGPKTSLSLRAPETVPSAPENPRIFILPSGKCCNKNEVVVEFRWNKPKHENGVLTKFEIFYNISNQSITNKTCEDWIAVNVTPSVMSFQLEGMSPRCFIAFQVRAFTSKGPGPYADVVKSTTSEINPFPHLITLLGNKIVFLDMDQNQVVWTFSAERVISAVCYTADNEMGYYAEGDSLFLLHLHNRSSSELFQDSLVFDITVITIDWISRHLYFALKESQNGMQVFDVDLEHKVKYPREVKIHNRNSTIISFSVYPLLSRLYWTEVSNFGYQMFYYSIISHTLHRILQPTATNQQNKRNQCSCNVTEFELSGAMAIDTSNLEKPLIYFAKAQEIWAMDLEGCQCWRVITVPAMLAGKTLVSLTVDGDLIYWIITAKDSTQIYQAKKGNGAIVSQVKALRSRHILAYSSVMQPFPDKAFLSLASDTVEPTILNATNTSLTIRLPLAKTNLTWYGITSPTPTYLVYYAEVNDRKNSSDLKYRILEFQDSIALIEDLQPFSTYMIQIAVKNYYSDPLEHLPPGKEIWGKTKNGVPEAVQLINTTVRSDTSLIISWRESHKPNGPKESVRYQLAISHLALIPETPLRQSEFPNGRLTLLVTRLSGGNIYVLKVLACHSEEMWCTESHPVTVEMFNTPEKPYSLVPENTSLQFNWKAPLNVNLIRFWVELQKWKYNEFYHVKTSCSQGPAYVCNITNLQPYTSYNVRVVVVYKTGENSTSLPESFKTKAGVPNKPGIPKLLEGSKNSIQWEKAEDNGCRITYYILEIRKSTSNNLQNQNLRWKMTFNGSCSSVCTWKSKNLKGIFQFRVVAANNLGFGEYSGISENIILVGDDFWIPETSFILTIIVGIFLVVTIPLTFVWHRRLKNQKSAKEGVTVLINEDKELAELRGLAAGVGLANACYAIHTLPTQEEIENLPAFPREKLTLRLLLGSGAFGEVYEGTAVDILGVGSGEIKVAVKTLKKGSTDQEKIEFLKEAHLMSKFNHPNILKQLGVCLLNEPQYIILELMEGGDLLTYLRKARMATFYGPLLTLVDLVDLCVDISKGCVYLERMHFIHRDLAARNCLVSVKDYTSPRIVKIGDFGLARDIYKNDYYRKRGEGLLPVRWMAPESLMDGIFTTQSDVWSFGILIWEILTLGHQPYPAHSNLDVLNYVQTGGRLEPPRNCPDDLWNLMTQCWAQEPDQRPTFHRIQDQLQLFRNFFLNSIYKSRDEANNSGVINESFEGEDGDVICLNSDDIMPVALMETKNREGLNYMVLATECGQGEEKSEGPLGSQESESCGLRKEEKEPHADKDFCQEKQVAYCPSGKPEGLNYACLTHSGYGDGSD
Chain of Casein kinase I isoform alpha (Homo sapiens) (P48729 2-337 limits assumed): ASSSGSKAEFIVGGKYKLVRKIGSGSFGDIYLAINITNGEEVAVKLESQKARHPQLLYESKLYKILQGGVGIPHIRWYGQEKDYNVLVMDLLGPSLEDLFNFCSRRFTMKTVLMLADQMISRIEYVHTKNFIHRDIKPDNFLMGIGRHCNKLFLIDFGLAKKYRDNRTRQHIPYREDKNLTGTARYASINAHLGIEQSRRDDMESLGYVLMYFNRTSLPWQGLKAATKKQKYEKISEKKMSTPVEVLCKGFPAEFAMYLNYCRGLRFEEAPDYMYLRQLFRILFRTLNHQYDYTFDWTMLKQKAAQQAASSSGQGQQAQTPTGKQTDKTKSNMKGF
Chain of STE20-like serine/threonine-protein kinase (Homo sapiens) (Q9H2G2 whole entry, looked up, the tested form may be a part): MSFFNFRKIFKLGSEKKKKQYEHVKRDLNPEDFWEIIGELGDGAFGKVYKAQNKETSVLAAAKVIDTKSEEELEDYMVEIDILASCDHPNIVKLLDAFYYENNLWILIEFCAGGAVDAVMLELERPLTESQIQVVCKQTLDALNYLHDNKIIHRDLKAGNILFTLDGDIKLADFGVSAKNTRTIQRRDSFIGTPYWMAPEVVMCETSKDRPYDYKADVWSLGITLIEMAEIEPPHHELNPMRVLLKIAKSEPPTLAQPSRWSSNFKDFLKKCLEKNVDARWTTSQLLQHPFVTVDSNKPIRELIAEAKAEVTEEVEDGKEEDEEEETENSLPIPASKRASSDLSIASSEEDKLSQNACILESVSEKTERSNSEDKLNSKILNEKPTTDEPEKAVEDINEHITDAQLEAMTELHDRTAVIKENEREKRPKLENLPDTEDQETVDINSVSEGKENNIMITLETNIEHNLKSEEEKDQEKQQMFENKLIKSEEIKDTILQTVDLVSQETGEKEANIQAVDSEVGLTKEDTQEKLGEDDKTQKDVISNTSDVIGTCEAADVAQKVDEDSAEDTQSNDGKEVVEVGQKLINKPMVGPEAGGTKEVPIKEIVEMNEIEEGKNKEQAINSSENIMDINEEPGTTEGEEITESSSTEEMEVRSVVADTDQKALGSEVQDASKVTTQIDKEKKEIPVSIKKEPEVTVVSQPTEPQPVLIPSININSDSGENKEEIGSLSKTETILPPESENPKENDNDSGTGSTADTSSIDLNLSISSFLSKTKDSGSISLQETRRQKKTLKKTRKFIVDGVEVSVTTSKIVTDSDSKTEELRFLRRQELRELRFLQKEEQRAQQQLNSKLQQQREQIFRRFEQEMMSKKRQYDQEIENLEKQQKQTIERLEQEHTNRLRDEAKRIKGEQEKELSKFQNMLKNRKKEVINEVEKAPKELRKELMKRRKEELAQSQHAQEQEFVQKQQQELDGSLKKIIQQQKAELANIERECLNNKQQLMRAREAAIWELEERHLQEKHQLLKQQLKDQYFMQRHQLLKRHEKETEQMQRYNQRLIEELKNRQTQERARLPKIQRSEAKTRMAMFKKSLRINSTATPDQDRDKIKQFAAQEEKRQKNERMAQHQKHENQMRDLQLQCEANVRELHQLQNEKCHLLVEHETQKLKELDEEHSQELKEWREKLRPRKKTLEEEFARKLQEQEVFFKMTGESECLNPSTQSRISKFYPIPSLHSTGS
Chain of Tyrosine-protein kinase JAK2 (Homo sapiens) (O60674 whole entry, the tested form may be a part, canonical isoform): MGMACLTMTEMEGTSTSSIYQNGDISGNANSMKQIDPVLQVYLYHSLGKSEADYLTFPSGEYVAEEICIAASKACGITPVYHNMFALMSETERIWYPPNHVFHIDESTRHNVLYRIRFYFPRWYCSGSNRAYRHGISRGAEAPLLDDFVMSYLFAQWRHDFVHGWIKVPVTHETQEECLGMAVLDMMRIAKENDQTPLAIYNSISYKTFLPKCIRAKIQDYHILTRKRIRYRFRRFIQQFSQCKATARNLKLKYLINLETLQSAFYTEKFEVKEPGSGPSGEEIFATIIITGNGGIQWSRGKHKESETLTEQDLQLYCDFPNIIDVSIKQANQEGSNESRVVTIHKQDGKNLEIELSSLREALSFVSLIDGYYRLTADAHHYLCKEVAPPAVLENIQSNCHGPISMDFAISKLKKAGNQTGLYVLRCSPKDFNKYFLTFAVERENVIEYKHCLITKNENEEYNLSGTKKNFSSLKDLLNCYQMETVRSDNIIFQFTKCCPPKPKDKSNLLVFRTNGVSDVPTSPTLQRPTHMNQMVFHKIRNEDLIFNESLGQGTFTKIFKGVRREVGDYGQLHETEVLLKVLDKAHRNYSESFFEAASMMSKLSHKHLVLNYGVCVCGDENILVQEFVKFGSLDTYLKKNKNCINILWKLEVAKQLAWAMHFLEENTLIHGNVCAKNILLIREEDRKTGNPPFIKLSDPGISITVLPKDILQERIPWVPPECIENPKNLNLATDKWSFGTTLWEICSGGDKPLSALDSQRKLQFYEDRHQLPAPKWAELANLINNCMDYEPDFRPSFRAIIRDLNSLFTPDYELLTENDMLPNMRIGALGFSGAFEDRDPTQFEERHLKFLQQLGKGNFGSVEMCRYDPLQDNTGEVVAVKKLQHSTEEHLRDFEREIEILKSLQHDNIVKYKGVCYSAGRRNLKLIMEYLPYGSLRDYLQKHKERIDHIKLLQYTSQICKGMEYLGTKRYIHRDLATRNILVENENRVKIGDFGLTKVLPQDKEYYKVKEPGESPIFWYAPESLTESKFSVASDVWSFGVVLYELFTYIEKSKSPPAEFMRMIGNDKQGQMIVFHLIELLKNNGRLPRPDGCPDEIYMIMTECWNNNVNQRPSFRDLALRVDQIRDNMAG

SMILES	inhibition [1] [%]	inhibition [2] [%]	inhibition [3] [%]	inhibition [4] [%]	inhibition [5] [%]	inhibition [6] [%]	inhibition [7] [%]	inhibition [8] [%]	inhibition [9] [%]	inhibition [10] [%]	inhibition [11] [%]	inhibition [12] [%]	inhibition [13] [%]	inhibition [14] [%]	inhibition [15] [%]	inhibition [16] [%]	inhibition [17] [%]	inhibition [18] [%]	inhibition [19] [%]	inhibition [20] [%]	further results
CCN1CC2(C1)CN(c1ccc(Nc3ncc(F)c(-c4cnn5c4[C@H](C)CCCC5)n3)nc1)C2	1	7	-4	0.5	56.5	8.5	61.5	10	27.5	2	57.5	97.5	14.5	13.5	-1	3.5	18.5	1.5	1.5	-0.5	inhibition [21]: 10.5%; inhibition [22]: 7%
CCN1CCN(Cc2ccc(Nc3ncc(F)c(-c4cc(F)c5nc(C)n(C(C)C)c5c4)n3)nc2)CC1 [ABEMACICLIB]	-0.5	6	-0.4	0	24.5	9	58	2.5	79.5	18.5	59.5	74.6	22.5	5.5	6.5	3.5	6	4.5	7.5	0	inhibition [21]: 9.3%; inhibition [22]: 10.5%

From ChEMBL document CHEMBL4385643, “Design of a brain-penetrant CDK4/6 inhibitor for glioblastoma” (Bioorg Med Chem Lett, 2019)
